Results reported in patent US10934263B2, “Charged ion channel blockers and methods for use” (Nocion Therapeutics, Inc., priority 2019, dated 2021).

Target: T1, NaV1.7 (Homo sapiens, UniProt Q15858)
T1 construct: expressed in transfected cells; tetracycline-inducible, kept under hygromycin and blasticidin
Assay: Whole cell patch clamp, external block of NaV1.7 current (compound in external solution)
Type: cell-based
Details: % inhibition at test concentration 1,000 μM, compound applied externally; read-out: Nav1.7 Extracellular Inhibition
Protocol: Representative compounds of the invention were synthesized according to the described methods and tested for the ability to inhibit voltage-gated sodium channels.
NaV1.7 was expressed upon induction with tetracycline. Cells were cultured in DMEM containing 10% dialyzed Fetal Bovine Serum (VWR, Radnor, Pa.), 1% Glutamax (VWR, Radnor, Pa.), 1% Penicillin-Streptomycin (VWR, Radnor, Pa.), 100 mg/L Hygromycin (Thermo Fisher Scientific, Waltham, Mass. and 5 mg/L Blasticidin (Alfa Aesar, Haverhill, Mass.). Cells were grown and maintained at 37° C. in a humidified environment containing 10% CO2 in air. Cells were detached from the culture flask for passage and harvested using 0.05% Trypsin-EDTA (Thermo Fisher Scientific, Waltham, Mass.). To induce NaV1.7, cells were induced with tetracycline (0.1-1 μg/mL, IBI Scientific, Peosta, Iowa) the day before recording and plated onto 24-well plates. Cells were washed with DPBS (VWR, Radnor, Pa.), trypsinized and then triturated five times in 10 mL of growth media to break apart cell aggregates. For one 24-well plate, 2 mL of cell suspension was mixed with 23 mL of fresh growth media and 0.1-1 μg/mL tetracycline added. 1 ml of mixed media with cells was then added to each well of a 24-well plate, with a 12 mm coverslip already placed in the bottom of the well. Cells were then incubated in 37° C. and 10% CO2 overnight.
The intracellular solution contained the following (in mM) CsCl 135, NaCl 10, EGTA 10, HEPES 10, MgCl2 2, adjusted to pH 7.2 with CsOH. The external solution was a normal Ringer solution containing (in mM) NaCl 155, HEPES 10, glucose 10, KCl 3.5, CaCl2 1.5, MgCl2 1 adjusted to pH 7.4 with NaOH. CsCl is from Alfa Aesar, Haverhill, Mass. All other chemicals are from Sigma-Aldrich, St. Louis, Mo. In order to test the degree of internal block by test compounds the compounds were dissolved in internal solution at the indicated test concentration. […] In order to test the degree of external block by test compounds the compounds were dissolved in external solution at the indicated test concentration.
18-24 hours after cells were induced with tetracycline, coverslips were placed into a chamber filled with Normal Ringer solution at room temperature and the chamber placed on a microscope. Pipettes were pulled from borosilicate glass on a P97 puller (Sutter Instrument, Novato, Calif.) and polished with a MF-830 Microforge (Narishige International USA, Inc, Amityville, N.Y.) to have a resistance of 1.5-2.5 MΩ when filled with CsCl internal solution at room temperature. Healthy cells (those that are round and translucent with no visible blemishes) were chosen for seal formation. A seal was formed between the pipette and the cell, and a brief pulse of suction was used to “break in” and establish the whole-cell configuration. The membrane potential was held at −100 mV before the voltage protocol began. Only cells with series resistance between 1.5-5 MΩ were retained for analysis. The voltage protocol was as follows: Cells were held at −100 mV for 12 ms followed by a hyperpolarizing step to −105 mV for 12 ms to monitor the leak. Cells were then stepped back to −100 mV for 40 ms. Cells were then depolarized to −20 mV for 10 ms and then returned to −100 mV for 26 ms.
Once the recording was started, the voltage protocol was run at 30 second intervals for 5 minutes to get a stable baseline. This is followed by 5 Hz stimulation of the same voltage protocol run until the end of experiment. […] The test compound is added for 5 minutes before washing out with normal Ringer's solution. Currents were recorded using PatchMaster software with Heka EPC10 (HEKA Electronics, Lambrecht, Germany). Only cells with inward current amplitudes at −20 mV between 400 pA and 4 nA were accepted. In addition, cells having leak currents greater than 10% of their current amplitudes were discarded. […]

T1 sequence (Q15858 whole entry): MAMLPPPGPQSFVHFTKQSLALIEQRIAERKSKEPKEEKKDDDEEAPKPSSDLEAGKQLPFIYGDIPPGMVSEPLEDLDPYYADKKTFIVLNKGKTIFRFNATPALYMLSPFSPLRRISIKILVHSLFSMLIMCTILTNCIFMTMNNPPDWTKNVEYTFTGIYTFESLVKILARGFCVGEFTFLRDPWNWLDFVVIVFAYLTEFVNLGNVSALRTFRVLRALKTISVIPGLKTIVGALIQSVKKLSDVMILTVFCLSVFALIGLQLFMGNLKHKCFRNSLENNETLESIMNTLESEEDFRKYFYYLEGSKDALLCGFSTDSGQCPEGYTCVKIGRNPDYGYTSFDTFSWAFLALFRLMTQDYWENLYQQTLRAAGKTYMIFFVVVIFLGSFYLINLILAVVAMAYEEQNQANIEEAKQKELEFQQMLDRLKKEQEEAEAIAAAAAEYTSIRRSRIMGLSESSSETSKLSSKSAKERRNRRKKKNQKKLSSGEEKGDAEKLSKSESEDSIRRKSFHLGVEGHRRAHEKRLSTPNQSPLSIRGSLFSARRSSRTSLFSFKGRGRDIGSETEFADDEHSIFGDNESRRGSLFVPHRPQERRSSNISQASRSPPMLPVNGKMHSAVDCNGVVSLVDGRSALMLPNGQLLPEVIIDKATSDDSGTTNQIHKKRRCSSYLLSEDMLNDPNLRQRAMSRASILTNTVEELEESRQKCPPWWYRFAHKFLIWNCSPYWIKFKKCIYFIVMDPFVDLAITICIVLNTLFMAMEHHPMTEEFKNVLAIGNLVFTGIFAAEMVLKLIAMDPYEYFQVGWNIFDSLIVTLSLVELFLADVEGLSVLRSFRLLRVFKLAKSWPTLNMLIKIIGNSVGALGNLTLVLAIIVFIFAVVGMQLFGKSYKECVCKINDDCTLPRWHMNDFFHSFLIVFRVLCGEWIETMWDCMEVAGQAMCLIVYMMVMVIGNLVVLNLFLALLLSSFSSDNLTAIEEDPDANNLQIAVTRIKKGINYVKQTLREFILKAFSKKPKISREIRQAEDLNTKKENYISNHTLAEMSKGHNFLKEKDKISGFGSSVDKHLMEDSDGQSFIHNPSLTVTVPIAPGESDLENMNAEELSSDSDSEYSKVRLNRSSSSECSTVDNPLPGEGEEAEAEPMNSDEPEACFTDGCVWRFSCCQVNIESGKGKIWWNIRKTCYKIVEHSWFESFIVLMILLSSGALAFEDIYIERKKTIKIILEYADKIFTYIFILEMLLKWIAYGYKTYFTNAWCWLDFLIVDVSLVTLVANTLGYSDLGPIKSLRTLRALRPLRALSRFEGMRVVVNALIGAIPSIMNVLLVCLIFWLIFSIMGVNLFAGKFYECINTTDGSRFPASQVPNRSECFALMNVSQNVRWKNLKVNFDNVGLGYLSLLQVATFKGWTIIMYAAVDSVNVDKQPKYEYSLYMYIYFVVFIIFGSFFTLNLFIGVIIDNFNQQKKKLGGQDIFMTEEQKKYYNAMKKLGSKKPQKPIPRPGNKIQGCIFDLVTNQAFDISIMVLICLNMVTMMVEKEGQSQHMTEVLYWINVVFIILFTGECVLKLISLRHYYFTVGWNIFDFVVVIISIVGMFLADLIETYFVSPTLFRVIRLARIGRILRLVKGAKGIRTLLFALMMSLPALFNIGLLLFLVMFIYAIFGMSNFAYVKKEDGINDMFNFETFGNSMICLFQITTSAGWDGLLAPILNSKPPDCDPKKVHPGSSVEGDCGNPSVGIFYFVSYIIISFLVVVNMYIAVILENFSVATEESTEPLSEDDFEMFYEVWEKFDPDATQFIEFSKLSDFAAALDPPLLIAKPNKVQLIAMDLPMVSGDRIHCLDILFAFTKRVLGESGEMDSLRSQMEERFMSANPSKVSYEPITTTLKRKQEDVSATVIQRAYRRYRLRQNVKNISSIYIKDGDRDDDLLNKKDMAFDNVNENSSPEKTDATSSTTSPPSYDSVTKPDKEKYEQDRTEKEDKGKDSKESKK

Inhibition at 1000 µM, < 40%:
CCOC(=O)Cn1cc(C)c[n+]1CC(=O)Nc1c(C)cccc1C [Compound 76]
CCOC(=O)CCCn1ccc[n+]1CC(=O)Nc1c(C)cccc1C [Compound 75]
Cc1cccc(C)c1NC(=O)Cn1ccc[n+]1CC(=O)Nc1c(C)cccc1C [Compound 109]
